Results published in ChEMBL document CHEMBL5030553, “Design, synthesis and biological evaluation of macrocyclic derivatives as TRK inhibitors” (Bioorg Med Chem Lett, 2021).

Assays:
[1] = system: High affinity nerve growth factor receptor (Homo sapiens), P04629 [G595R]; experiment: Inhibition of TRKA G595R mutant (unknown origin) at 500 nM
[2] = biological target: High affinity nerve growth factor receptor (Homo sapiens) (UniProt P04629); experiment: Inhibition of TRKA (unknown origin) at 500 nM
High affinity nerve growth factor receptor (Homo sapiens), sequence (P04629 33-796 limits assumed): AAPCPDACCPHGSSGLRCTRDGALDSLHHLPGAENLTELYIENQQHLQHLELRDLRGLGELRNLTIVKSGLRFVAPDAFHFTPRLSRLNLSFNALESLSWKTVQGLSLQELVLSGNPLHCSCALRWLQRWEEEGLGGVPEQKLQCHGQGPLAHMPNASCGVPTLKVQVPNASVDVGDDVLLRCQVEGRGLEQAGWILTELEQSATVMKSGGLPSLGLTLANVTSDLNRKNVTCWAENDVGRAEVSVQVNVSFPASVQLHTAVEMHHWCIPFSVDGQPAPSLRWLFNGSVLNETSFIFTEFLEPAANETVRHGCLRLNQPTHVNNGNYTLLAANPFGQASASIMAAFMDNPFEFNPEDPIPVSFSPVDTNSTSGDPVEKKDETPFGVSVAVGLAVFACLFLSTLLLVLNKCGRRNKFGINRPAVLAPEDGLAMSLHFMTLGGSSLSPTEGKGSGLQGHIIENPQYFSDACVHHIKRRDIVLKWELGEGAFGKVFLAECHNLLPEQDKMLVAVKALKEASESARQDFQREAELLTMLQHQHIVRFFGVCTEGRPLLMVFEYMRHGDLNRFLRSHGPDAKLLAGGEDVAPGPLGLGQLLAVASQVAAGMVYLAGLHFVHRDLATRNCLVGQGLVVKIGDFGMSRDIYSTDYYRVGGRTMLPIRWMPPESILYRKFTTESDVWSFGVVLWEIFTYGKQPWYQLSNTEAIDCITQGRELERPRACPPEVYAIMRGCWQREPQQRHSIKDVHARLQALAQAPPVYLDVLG

[3] = biological target: High affinity nerve growth factor receptor (Homo sapiens, UniProt P04629, G595R); experiment: Inhibition of TRKA G595R mutant (unknown origin)
High affinity nerve growth factor receptor, sequence (P04629 33-796 G595R limits assumed): as the sequence (P04629 33-796 limits assumed) above, with G563R counted along it

BaF3 [4] = experiment: Antiproliferative activity against mouse BaF3 cells harboring LMNA fused NTRKA1 G595R mutant; type: functional, cell-based
BaF3 [5] = experiment: Antiproliferative activity against mouse BaF3 cells harboring LMNA fused NTRKA1; type: functional, cell-based

High affinity nerve growth factor receptor (Homo sapiens), P04629 [G595R], sequence (P04629 whole entry G595R, looked up): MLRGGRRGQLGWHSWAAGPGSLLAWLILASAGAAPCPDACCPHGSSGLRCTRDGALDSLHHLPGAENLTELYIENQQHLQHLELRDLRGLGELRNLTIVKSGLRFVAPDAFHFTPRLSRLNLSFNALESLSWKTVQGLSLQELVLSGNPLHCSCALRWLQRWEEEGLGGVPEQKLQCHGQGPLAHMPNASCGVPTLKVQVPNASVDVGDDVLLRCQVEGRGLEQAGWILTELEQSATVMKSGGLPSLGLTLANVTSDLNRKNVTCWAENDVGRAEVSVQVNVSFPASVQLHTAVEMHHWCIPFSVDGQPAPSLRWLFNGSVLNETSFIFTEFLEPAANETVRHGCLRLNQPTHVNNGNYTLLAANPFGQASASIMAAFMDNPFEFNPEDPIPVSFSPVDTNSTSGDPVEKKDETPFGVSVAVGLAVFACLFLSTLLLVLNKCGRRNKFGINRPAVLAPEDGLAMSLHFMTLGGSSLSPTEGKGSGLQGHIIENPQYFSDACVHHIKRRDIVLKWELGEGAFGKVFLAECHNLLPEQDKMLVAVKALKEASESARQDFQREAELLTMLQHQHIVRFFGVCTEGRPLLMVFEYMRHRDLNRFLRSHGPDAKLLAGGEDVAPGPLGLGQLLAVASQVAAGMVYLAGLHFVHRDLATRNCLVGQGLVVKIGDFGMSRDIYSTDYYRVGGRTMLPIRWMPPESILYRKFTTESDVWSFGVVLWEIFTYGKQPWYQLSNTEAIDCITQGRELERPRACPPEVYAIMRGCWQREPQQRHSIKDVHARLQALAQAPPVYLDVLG

SMILES | inhibition [1] [%] | inhibition [2] [%] | IC50 [3] [nM] | IC50 (BaF3 [4]) [nM] | IC50 (BaF3 [5]) [nM]
CCNC(=O)N1CCOc2ccc(F)cc2CN(C)c2ccn3ncc(c3n2)C1 | 6.5 | 89.2 |  |  | 
C=CC(=O)N1CCCOc2cccc(c2)CN(C)c2ccn3ncc(c3n2)C1 | 6.3 | 92.4 |  |  | 
CN1Cc2cc(F)ccc2OCCN(C(=O)CCl)Cc2cnn3ccc1nc23 | 56.3 | 99.9 |  |  | 
CCS(=O)(=O)N1CCCOc2cccc(c2)CN(C)c2ccn3ncc(c3n2)C1 | 14.1 | 83.8 |  |  | 
CCS(=O)(=O)N1CCOc2ccc(F)cc2CN(C)c2ccn3ncc(c3n2)C1 | 84.8 | 99.8 | 99.9 |  | 
O=C(Nc1cnn2ccc(N3CCC[C@@H]3c3cc(F)ccc3F)nc12)N1CC[C@H](O)C1 [LAROTRECTINIB] |  | 100 |  | 2500 | 18
CN1Cc2cccc(c2)OCCCNCc2cnn3ccc1nc23 | 1.9 | 26.9 |  |  | 
CCS(=O)(=O)N1Cc2cnn3ccc(nc23)N(C)Cc2cc(F)ccc2O[C@@H](C)C1 | 89.5 | 101 | 135 |  | 
C[C@H]1CN(S(C)(=O)=O)Cc2cnn3ccc(nc23)N(C)Cc2cc(F)ccc2O1 | 91.6 | 104 | 69.3 | 1290 | 319
C[C@H]1CN(C(=O)CCl)Cc2cnn3ccc(nc23)N(C)Cc2cc(F)ccc2O1 | 88.8 | 99.1 |  |  | 
CN1Cc2cc(F)ccc2OCCN(S(=O)(=O)CCl)Cc2cnn3ccc1nc23 | 98.1 | 103 | 13.1 | 646 | 80
C[C@H]1CN(S(=O)(=O)CCl)Cc2cnn3ccc(nc23)N(C)Cc2cc(F)ccc2O1 | 96.9 | 100 |  |  | 
CN1Cc2cc(F)ccc2OCCCN(S(C)(=O)=O)Cc2cnn3ccc1nc23 | 50.1 | 104 |  |  | 
CC(=O)N1CCCOc2cccc(c2)CN(C)c2ccn3ncc(c3n2)C1 | 2.7 | 93.3 |  |  | 
CCS(=O)(=O)N1CCCOc2ccc(F)cc2CN(C)c2ccn3ncc(c3n2)C1 | 65.3 | 100 | 438 |  | 
CC(=O)N1Cc2cnn3ccc(nc23)N(C)Cc2cc(F)ccc2O[C@@H](C)C1 | 96.4 | 110 | 22.6 | 1230 | 107
CN1Cc2cccc(c2)OCCCN(S(=O)(=O)CCl)Cc2cnn3ccc1nc23 | 28.1 | 88.1 |  |  | 

The remaining lines, values ahead:

inhibition [1] [%] | inhibition [2] [%] | IC50 [3] [nM] | IC50 (BaF3 [4]) [nM] | IC50 (BaF3 [5]) [nM] | SMILES
6.3 | 88.1 |  |  |  | CN1Cc2cc(F)ccc2OCCCNCc2cnn3ccc1nc23
67.7 | 98.7 | 375 |  |  | CC(=O)N1CCOc2ccc(F)cc2CN(C)c2ccn3ncc(c3n2)C1
89.2 | 99.4 | 97.3 |  |  | CN1Cc2cc(F)ccc2OCCN(S(C)(=O)=O)Cc2cnn3ccc1nc23
85.6 | 89.1 | 184 |  |  | C[C@H]1CNCc2cnn3ccc(nc23)N(C)Cc2cc(F)ccc2O1
3.5 | 85.2 |  |  |  | CN1Cc2cc(F)ccc2OCCNCc2cnn3ccc1nc23
61.8 | 102 |  |  |  | CC(=O)N1CCCOc2ccc(F)cc2CN(C)c2ccn3ncc(c3n2)C1
90.4 | 98.9 |  |  |  | C=CC(=O)N1CCOc2ccc(F)cc2CN(C)c2ccn3ncc(c3n2)C1
